Experimental data: patent US6969702B2, “Compounds and methods for increasing neurogenesis” (priority 2002, dated 2005)
Like-named read-outs stand apart in the source and are kept apart here. Marks after values point to notes of the source that are not given here. Bridge positions count the residues as written; N and C are the ends. Square brackets hold non-standard residues; d marks the D form. Ends that are not written are not given here. Peptide text beside a SMILES is read from it. pGlu = O=C1CC[C@@H](C(=O)O)N1

Columns and labels:
[1] = test system: mouse adult neural stem cells; conditions: 0.1 µM
[2] = test system: cAMP activation in mouse adult neural stem cells
[3] = test system: Adult neural stem cells; conditions: 0.1 µM
[4] = test system: Adult neural stem cells; test: Flow cytometry for early neuronal marker Doublecortin; conditions: for Fold Induction (Doublecortin-positive cells): vs EGF/FGF
[5] = test system: cAMP activation in mouse adult neural stem cells; test: cAMP detection (HitHunter EFC Cyclic AMP Chemiluminescence Assay); conditions: Table 2; for Fold Induction cAMP: vs vehicle
[6] = test system: mouse adult neural stem cells; test: ATP-assay: proliferation (ATP levels) of neurosphere-derived cells
[7] = test system: NFAT-Luciferace reporter (Ca^2+); conditions: for NFAT Luciferace units: 24 hours after induction
[8] = test system: CREB phosphorylation in mouse adult neural stem cells; format: cell-based; conditions: 100 nM; mouse adult neural stem cells; time course 15 minutes to 8 hours
[9] = test system: CREB phosphorylation in human adult neural stem cells; format: cell-based; conditions: 100 nM; human adult neural stem cells; time course 15 minutes to 8 hours
[10] = Table 2, 10 nM, 4 days, vs vehicle

## CC[C@H](C)[C@H](NC(=O)[C@H](CCC(N)=O)NC(=O)[C@H](Cc1c[nH]cn1)NC(=O)[C@H](C)NC(=O)[C@H](CC(C)C)NC(=O)[C@H](CCCCN)NC(=O)[C@H](CCC(N)=O)NC(=O)[C@@H](NC(=O)[C@@H](N)[C@@H](C)O)C(C)C)C(=O)N[C@@H](Cc1ccc(O)cc1)C(=O)N[C@@H](CCC(N)=O)C(=O)N[C@@H](Cc1ccccc1)C(=O)N[C@H](C(=O)N[C@@H](CC(=O)O)C(=O)N[C@@H](CCCCN)C(=O)N[C@@H](CC(=O)O)C(=O)N[C@@H](CCCCN)C(=O)N[C@@H](CC(=O)O)C(=O)N[C@@H](CC(N)=O)C(=O)N[C@H](C(=O)N[C@@H](C)C(=O)N1CCC[C@H]1C(=O)N[C@@H](CCCNC(=N)N)C(=O)N[C@@H](CO)C(=O)N[C@@H](CCCCN)C(=O)N[C@H](C(=O)N[C@@H](CO)C(=O)N1CCC[C@H]1C(=O)N[C@@H](CCC(N)=O)C(=O)NCC(=O)N[C@@H](Cc1ccc(O)cc1)C(N)=O)[C@@H](C)CC)C(C)C)[C@@H](C)O [Adrenomedullin (22-52)]
[1]
  Fold Induction ATP: 1.6** fold
[2]; 0.1 µM
  Fold Induction cAMP: 1.6* fold
[3]
  Fold Induction (Doublecortin-positive cells): 0.8 fold
[4]
  % Doublecortin-positive cells: 2.0%
[5]; 100 nM (cAMP concentration)
  cAMP (pmol/well): 0.34 ± 0.07 pmol/well
[6]; Table 2, 100 nM, 4 days
  ATP (nM ATP/well): 12.3 ± 1.1 nM ATP/well

## CC[C@H](C)[C@H](NC(=O)[C@H](CCC(N)=O)NC(=O)[C@H](Cc1c[nH]cn1)NC(=O)[C@H](C)NC(=O)[C@H](CC(C)C)NC(=O)[C@H](CCCCN)NC(=O)[C@H](CCC(N)=O)NC(=O)[C@@H](NC(=O)[C@@H](NC(=O)[C@@H]1CSSC[C@H](NC(=O)CNC(=O)[C@H](Cc2ccccc2)NC(=O)[C@H](CO)NC(=O)[C@H](CCCNC(=N)N)NC(=O)[C@H](CC(C)C)NC(=O)CNC(=O)[C@H](CCC(N)=O)NC(=O)[C@H](Cc2ccccc2)NC(=O)[C@H](CC(N)=O)NC(=O)[C@H](CC(N)=O)NC(=O)[C@H](CCSC)NC(=O)[C@H](CO)NC(=O)[C@H](CCC(N)=O)NC(=O)[C@H](CCCNC(=N)N)NC(=O)[C@@H](N)Cc2ccc(O)cc2)C(=O)N[C@@H](CCCNC(=N)N)C(=O)N[C@@H](Cc2ccccc2)C(=O)NCC(=O)N[C@@H]([C@@H](C)O)C(=O)N1)[C@@H](C)O)C(C)C)C(=O)N[C@@H](Cc1ccc(O)cc1)C(=O)N[C@@H](CCC(N)=O)C(=O)N[C@@H](Cc1ccccc1)C(=O)N[C@H](C(=O)N[C@@H](CC(=O)O)C(=O)N[C@@H](CCCCN)C(=O)N[C@@H](CC(=O)O)C(=O)N[C@@H](CCCCN)C(=O)N[C@@H](CC(=O)O)C(=O)N[C@@H](CC(N)=O)C(=O)N[C@H](C(=O)N[C@@H](C)C(=O)N1CCC[C@H]1C(=O)N[C@@H](CCCNC(=N)N)C(=O)N[C@@H](CO)C(=O)N[C@@H](CCCCN)C(=O)N[C@H](C(=O)N[C@@H](CO)C(=O)N1CCC[C@H]1C(=O)N[C@@H](CCC(N)=O)C(=O)NCC(=O)N[C@@H](Cc1ccc(O)cc1)C(N)=O)[C@@H](C)CC)C(C)C)[C@@H](C)O [Adrenomedullin (human)]
[1]
  Fold Induction ATP: 1.1* fold
[2]; 0.1 µM
  Fold Induction cAMP: 2.5** fold
[7]; 0.1 µM
  Fold Induction NFAT: 2.2** fold
[7]; Table 4, 100 nM
  NFAT Luciferace units: 12.4 ± 0.9 Luciferace units
[3]
  Fold Induction (Doublecortin-positive cells): 1.6 fold
[4]; Table 6, 100 nM, 4 days
  % Doublecortin-positive cells: 4.2%
[5]; 100 nM (cAMP concentration)
  cAMP (pmol/well): 0.15 ± 0.3 pmol/well
[6]; Table 2, 100 nM, 4 days
  ATP (nM ATP/well): 11.6 ± 0.8 nM ATP/well
[6]; Table 4, 100 nM
  ATP (nM ATP/well): 11.6 ± 0.8 nM ATP/well

## CC[C@H](C)[C@H](NC(=O)[C@H](Cc1ccccc1)NC(=O)[C@H](C)NC(=O)[C@H](CC(=O)O)NC(=O)[C@H](CCCCN)NC(=O)[C@H](CO)NC(=O)[C@@H]1CCCN1C(=O)[C@@H]1CCC(=O)N1)C(=O)NCC(=O)N[C@@H](CC(C)C)C(=O)N[C@@H](CCSC)C(N)=O [Eledoisin] ([pGlu]PSKDAFIGLM-NH2)
[1]; mouse
  Fold Induction ATP: 1.2* fold
[2]; mouse, 0.001 µM
  Fold Induction cAMP: 1.2* (1 nM) fold
[3]; mouse
  Fold Induction (Doublecortin-positive cells): 1.7 fold
[4]; Table 6, 100 nM, 4 days
  % Doublecortin-positive cells: 4.3%
[5]; 1 nM (cAMP concentration)
  cAMP (pmol/well): 1.0 ± 0.06 pmol/well
[6]; Table 2, 100 nM, 4 days
  ATP (nM ATP/well): 10.4 ± 1.1 nM ATP/well

## CC[C@H](C)[C@H](NC(=O)[C@H](CC(=O)O)NC(=O)[C@H](CC(C)C)NC(=O)[C@H](Cc1cnc[nH]1)NC(=O)[C@@H]1CSSC[C@H](N)C(=O)N[C@@H](CO)C(=O)N[C@H]2CSSC[C@H](NC(=O)[C@H](CCC(=O)O)NC(=O)[C@H](CCCCN)NC(=O)[C@H](CC(=O)O)NC(=O)[C@H](CCSC)NC(=O)[C@H](CC(C)C)NC(=O)[C@H](CO)NC(=O)[C@H](CO)NC2=O)C(=O)N[C@@H](C(C)C)C(=O)N[C@@H](Cc2ccc(O)cc2)C(=O)N[C@@H](Cc2ccccc2)C(=O)N1)C(=O)N[C@H](C(=O)N[C@@H](Cc1c[nH]c2ccccc12)C(=O)O)[C@@H](C)CC [Endothelin-1 (human, porcine)]
[7]; Table 4, 10 nM
  NFAT Luciferace units: 13.3 ± 1.3 Luciferace units
[7]; Table 4, 10 nM, vs vehicle
  Fold Induction NFAT: 1.6** fold
[4]; Table 6, 10 nM, 4 days
  % Doublecortin-positive cells: 5.0%
[4]; Table 6, 10 nM
  Fold Induction (Doublecortin-positive cells): 2.0 fold
[5]; 10 nM (cAMP concentration)
  cAMP (pmol/well): 3.64 ± 1.13 pmol/well
[5]; 10 nM
  Fold Induction cAMP: 2.0* fold
[6]; Table 2, 10 nM, 4 days
  ATP (nM ATP/well): 41.7 ± 7.2 nM ATP/well
[6]; [10]
  Fold Induction ATP: 2.5* fold
[6]; Table 4; 10 nM; Porcine,)
  ATP (nM ATP/well): 35.3 ± 3.7 nM ATP/well
[6]; Table 4; 10 nM; vs vehicle; Porcine,), 0.01 µM
  Fold Induction ATP: 1.3* fold

## CC[C@H](C)[C@H](NC(=O)CNC(=O)[C@H](CC(=O)O)NC(=O)[C@H](CO)NC(=O)[C@@H](N)Cc1cnc[nH]1)C(=O)N[C@@H](Cc1ccccc1)C(=O)N[C@H](C(=O)N[C@@H](CC(=O)O)C(=O)N[C@@H](CO)C(=O)N[C@@H](Cc1ccc(O)cc1)C(=O)N[C@@H](CO)C(=O)N[C@@H](CCCNC(=N)N)C(=O)N[C@@H](Cc1ccc(O)cc1)C(=O)N[C@@H](CCCNC(=N)N)C(=O)N[C@@H](CCCCN)C(=O)N[C@@H](CCC(N)=O)C(=O)N[C@@H](CCSC)C(=O)N[C@@H](C)C(=O)N[C@H](C(=O)N[C@@H](CCCCN)C(=O)N[C@@H](CCCCN)C(=O)N[C@@H](Cc1ccc(O)cc1)C(=O)N[C@@H](CC(C)C)C(=O)N[C@@H](C)C(=O)N[C@@H](C)C(=O)N[C@H](C(=O)N[C@@H](CC(C)C)C(=O)NCC(=O)N[C@@H](CCCCN)C(=O)N[C@@H](CCCNC(=N)N)C(=O)N[C@@H](Cc1ccc(O)cc1)C(=O)N[C@@H](CCCCN)C(=O)N[C@@H](CCC(N)=O)C(=O)N[C@@H](CCCNC(=N)N)C(=O)N[C@H](C(=O)N[C@@H](CCCCN)C(=O)N[C@@H](CC(N)=O)C(=O)N[C@@H](CCCCN)C(N)=O)C(C)C)C(C)C)C(C)C)[C@@H](C)O [PACAP-38]
[7]; Table 4, 10 nM
  NFAT Luciferace units: 6.2 ± 1.6 Luciferace units
[7]; Table 4, 10 nM, vs vehicle
  Fold Induction NFAT: 1.7* fold
[4]; Table 6, 100 nM, 4 days
  % Doublecortin-positive cells: 5.2%
[4]; Table 6, 100 nM
  Fold Induction (Doublecortin-positive cells): 2.0 fold
[5]; 100 nM (cAMP concentration)
  cAMP (pmol/well): 0.13 ± 0.03 pmol/well
[5]; 100 nM
  Fold Induction cAMP: 4.2** fold
[6]; Table 2, 100 nM, 4 days
  ATP (nM ATP/well): 26.9 ± 3.7 nM ATP/well
[6]; Table 2, 100 nM, 4 days, vs vehicle
  Fold Induction ATP: 2.9** fold
[6]; Table 4, 10 nM
  ATP (nM ATP/well): 22.0 ± 0.9 nM ATP/well
[6]; Table 4, 10 nM, vs vehicle
  Fold Induction ATP: 2.3*** fold

## CC[C@H](C)[C@H](NC(=O)[C@@H](NC(=O)[C@H](CC(=O)O)NC(=O)[C@H](CCC(N)=O)NC(=O)[C@H](Cc1c[nH]cn1)NC(=O)[C@@H]1CSSC[C@H](N)C(=O)N[C@@H](CO)C(=O)N[C@H]2CSSC[C@H](NC(=O)[C@H](CCC(=O)O)NC(=O)[C@H](CCCCN)NC(=O)[C@H](CC(=O)O)NC(=O)[C@H]([C@@H](C)O)NC(=O)[C@H](CCSC)NC(=O)[C@H](CC(=O)O)NC(=O)[C@H](CCCCN)NC2=O)C(=O)N[C@@H](CC(C)C)C(=O)N[C@@H](CC(N)=O)C(=O)N[C@@H](Cc2ccccc2)C(=O)N1)C(C)C)C(=O)N[C@@H](Cc1c[nH]c2ccccc12)C(=O)O [Sarafotoxin S6a] (H-CSCKDMTDKECLNFCHQDVIW-OH; disulfide 1-15, 3-11; N-terminus and C-terminus assumed)
[7]; Table 4, 1 nM
  NFAT Luciferace units: 6.3 ± 2.4 Luciferace units
[7]; Table 4, 1 nM, vs vehicle
  Fold Induction NFAT: 3.4* fold
[4]; Table 6, 100 nM, 4 days
  % Doublecortin-positive cells: 3.2%
[4]; Table 6, 100 nM
  Fold Induction (Doublecortin-positive cells): 1.3 fold
[5]; 10 nM (cAMP concentration)
  cAMP (pmol/well): 0.41 ± 0.06 pmol/well
[5]; 10 nM
  Fold Induction cAMP: 1.4* fold
[6]; Table 2, 10 nM, 4 days
  ATP (nM ATP/well): 43.3 ± 4.5 nM ATP/well
[6]; [10]
  Fold Induction ATP: 3.5*** fold
[6]; Table 4, 1 nM
  ATP (nM ATP/well): 38.9 ± 3.2 nM ATP/well
[6]; Table 4, 1 nM, vs vehicle
  Fold Induction ATP: 3.1*** fold

## CC1(C)SSC(C)(C)[C@@H](NC(=O)[C@@H](N)Cc2ccc(O)cc2)C(=O)NCC(=O)N[C@@H](Cc2ccccc2)C(=O)N[C@H]1C(=O)O [[D-Pen2-5]-Enkephalin]
[7]; Table 4, 100 nM
  NFAT Luciferace units: 10.3 ± 2.1 Luciferace units
[7]; Table 4, 100 nM, vs vehicle
  Fold Induction NFAT: 1.8* fold
[4]; Table 6, 100 nM, 4 days
  % Doublecortin-positive cells: 3.3%
[4]; Table 6, 100 nM
  Fold Induction (Doublecortin-positive cells): 1.3 fold
[5]; 10 nM (cAMP concentration)
  cAMP (pmol/well): 0.06 ± 0.01 pmol/well
[5]; 10 nM
  Fold Induction cAMP: 1.7* fold
[6]; Table 2, 10 nM, 4 days
  ATP (nM ATP/well): 10.7 ± 0.9 nM ATP/well
[6]; [10]
  Fold Induction ATP: 1.2** fold
[6]; Table 4, 10 nM
  ATP (nM ATP/well): 10.7 ± 0.9 nM ATP/well
[6]; Table 4, 10 nM, vs vehicle
  Fold Induction ATP: 1.2* fold

## PACAP: pituitary adengate cyclase activating peptide, cAMP activator (HSDGIFTDSYSRYRKQMAVKKYLAAVLGKRYKQRVKNK; ends and bridges not checked; UniProt P18509 132-169, looked up)
[8]
  CREB phosphorylation: up-regulation of CREB phosphorylation
[9]
  CREB phosphorylation: up-regulation of CREB phosphorylation
